The source of these data is patent publication US11666562B2, “Ilaprazole for inhibiting the release of enveloped viruses from cells” (Northwestern University, priority 2020, dated 2023).

In one experiment the test system is HSV-1. Nature of the experiment: Release of HSV-1 from infected Vero cells, plaque assay. It is filed as cell-based, Herpes simplex virus-1 (Kos strain). To be noted: different concentrations, repeated 4 times. On the procedure: (§1) We infected Vero cells with HSV-1 and HSV-2 for two hours at a multiplicity of infection (MOI in pfu\cell) of 0.1 to assay the antiviral activity of tenatoprazole. Following infection, cells were treated with different concentrations of tenatoprazole. After 24 or 48 h the media fractions were collected and released virus titers were determined by standard plaque assays (30). Tenatoprazole caused a 3-log drop of HSV-1 and 4-5 log drop of HSV-2 in released infectious virus from Vero cells at 24 hours after infection in a dose dependent manner (Table 1, shown in FIG. 5, columns 2 and 3) with calculated EC50's ranging from 48-80 μM. Total virus titer was also determined to differentiate between virus released into the media and infectious particles present in cell lysate. […] The concentrations of tenatoprazole that blocked virus release were nontoxic to Vero cells as determined by a 96® AQueous One Solution cell proliferation assay reagent (Table 1, shown in FIG. 5, column 7). Taken together, tenatoprazole inhibited levels of both released and infectious virus particles without affecting cell viability at effective concentrations.
(§2) Herpesvirus infection of Vero cells. Vero cells (0.8×10^6 cells/well of a 6-well plate) were infected with HSV-1 or HSV-2 at a MOI of 0.1 pfu/cell in DMEM with 1% serum for two hours in the C02 incubator at 37° C. In one experiment looking at the effect of tenatoprazole on HSV-2 release from cells 24 and 48 h a MOI of 3 pfu/cell was used. The cell supernatants were aspirated and replaced with 1 ml (24 h) or 2 ml (48 h and 72 h) of DMEM with 1% serum with DMSO or different concentrations of drug (tenatoprazole, ilaprazole, or analogs) dissolved in DMSO. After 24 or 48 h incubation, the cell supernatant was collected and frozen at −80° C. Virus titer in the cell media fraction was determined by standard plaque assays using 10-fold serial dilutions of cell supernatants of Vero cells and incubated for 48 h after which cells were fixed and stained to count the plaques (22). For determination of total virus (extracellular+cytoplasmic), virus infected cells were incubated for 24 h with and without drug presence, then the plate of cells were subjected to 3 cycles of freeze/thawing (−80° C./37° C.) 30 min each prior to collecting the supernatant after centrifugation for measurement of total virus titer. Virus titer was measured by standard plaque assay as above.
(§3) Drug potency and cell toxicity. EC50 calculations were determined by using AAT Bioquest's EC50 calculator. Cell toxicity at different concentrations of drugs as indicated was determine using the Cell Proliferation Reagent WST-1 (Roche Diagnostics) or cellular 96® Aqueous One Reagent viability reagent according to manufacturer's instructions. For 293T cells, the concentration of DMSO was 0.2% or less and assays were carried out with DMEM with 10% serum. Cell toxicity experiments were repeated twice.

In the next experiment the test system is HSV-2. As to the kind of experiment: Release of HSV-2 from infected Vero cells, plaque assay. In kind it is cell-based, Herpes simplex virus-2(A/B-G). Conditions: for Anti-HSV-2 activity (release from Vero cells), in words: Table 2, 24 h. The protocol: as §1
To examine the effects of the compounds on the release of HSV-2 from Vero cells, we infected the cells with virus two hours prior to treatment with media containing different concentrations of compound. We incubated the cells for 24 or 48 hours and then collected the cell media fractions.
as §2, §3

The next experiment deals with HIV-1. Conditions: earlier reports (refs 5, 29); cited from earlier work.
Experiment [1] deals with T1, Tsg101-UEV (Tsg101 amino acids 1-145) (Homo sapiens, UniProt Q99816).
T1 construct: The recombinant Tsg101 fragment (amino acids 1-145), prepared as described above in Materials and Methods; His6 (N); thrombin protease cleavage site (N); made in house; host or cells: E. coli ROSETTA 2 (DE3) pLysS
T1 sequence (Q99816 1-145): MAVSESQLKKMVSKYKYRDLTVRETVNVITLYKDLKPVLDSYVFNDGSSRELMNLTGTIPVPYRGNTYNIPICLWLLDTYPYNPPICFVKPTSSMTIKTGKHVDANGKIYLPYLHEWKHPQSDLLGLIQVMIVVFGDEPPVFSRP
Nature of the experiment: Fluorescence thermal shift (FTS) assay, binding to Tsg101-UEV. To be noted: FTS, Sypro-Orange, no DTT. The protocol: The fluorescence-based thermal shift assay is based on the observation that a protein unfolds upon heating, exposing the hydrophobic residues within its tertiary structure. The unfolding temperature (Tm) is determined by the protein's primary sequence and solution environment. The FTS assay uses a fluorescent dye sensitive to a hydrophobic environment to probe protein stability and its modulation by small molecule ligands. The dye has a low fluorescence quantum yield when in a polar environment. Once in contact with the hydrophobic core normally buried within a folded protein that has become exposed during the thermal unfolding (melting) process, the quantum yield of the dye increases, thus providing a reporting signal. Furthermore, a protein's stability can be affected by ligand binding, resulting in an increase or decrease in its melting temperature. FTS assay uses the Tm shift upon binding of a ligand to identify hit compounds for drug discovery.
Identification of prazole compounds that bind the UEV ubiquitin-binding domain of Tsg101. We screened chemical compounds using a fluorescence thermal shift (FTS) assay (27, 28) to identify small molecules that bind directly to a truncated form of Tsg101 (amino acids 1-145) which contains the Ubiquitin E2 variant (UEV) ubiquitin-binding domain (FIG. 1). The UEV, which contains the PT/SAP binding domain in addition to the ubiquitin-binding domain, provides chaperone functions to HIV-1 Gag that is independent of its interaction with the PS/TAP motif, and contains the prazole binding site (5). This truncated Tsg101, called Tsg101-UEV, was used because full-length Tsg101 has significant solubility issues in aqueous solution. Tsg101 is an adaptor protein and thus lacks a readily deployable functional assay, making FTS a tractable approach to identify interacting compounds. FTS monitors protein thermal denaturation using SYPRO-Orange, a dye which fluoresces when bound to hydrophobic surfaces, which allows monitoring of the changes in hydrophobic surface exposure during protein denaturation (27). Since ligand binding affects protein thermal stability, it can be detected through modulation of protein thermal denaturation (melting) as a shift in melting temperature (Tm). Tsg101-UEV has a well-defined melting curve suitable for FTS. We used the FTS assay to identify compounds that bind to Tsg101-UEV.
Purification of Tsg101 (1-145). N-terminally His6-tagged Tsg101 UEV domain (amino acids 1-145), called Tsg101-UEV, was encoded in a pET-28b vector (Novagen—EMD Millipore), which also included a thrombin protease cleavage site (His6-Thrombin Site-Tsg101, 1-145). Tsg101-UEV was grown in LB broth with Kanamycin (30 μg/ml) in ROSETTA 2 (DE3) pLysS E. coli competent cells (EMD Millipore) and induced with 1 mM IPTG at room temperature for 3 h. Bacteria were collected by centrifugation at 4,000 rpm for 10 min at […]. Bacteria were suspended in 50 ml binding buffer (20 mM Tris-HCl, pH 7.9, 0.5 M NaCl, 5 mM Imidazole) with 1 mM PMSF, 0.1% NP40, and a Protease Inhibitor Cocktail Tablet (Roche) and sonicated for 3.5 min on ice. The sonicate was spun at 9,000 rpm for 1 h at […] in a Sorvall centrifuge. The supernatant was collected and passed through a 1.5 ml Ni-NTA Agarose column. The column was washed with 20 mM Tris-HCl, pH 7.9, 0.5 M NaCl, 30 mM Imidazole wash buffer. […] Protein concentration was determined with a Nano Drop Spectrophotometer at […]. […]

On to `NC(CO)C(=O)NNCc1ccc(O)c(O)c1O` (stereo not shown) [benserazide (K21), benserazide], for which, in the experiment on HSV-1, the “Effect on release of HSV-1 from VERO cells” value is given as “did not appear to affect release of virus from cells”.
The term EC50 denotes the concentration at which the effect is half-maximal. Consider `COc1ccc2nc([S@@+]([O-])Cc3ncc(C)c(OC)c3C)[nH]c2c1` [esomeprazole], for which the EC50 in the experiment with HSV-2 (Human alphaherpesvirus 2, Vero cells, MOI 0.1, 24 h, read-out: EC50, inhibition of HSV-2 release) amounted to 140 µM. In addition, in the experiment with HIV-1, the “Inhibition of release of infectious HIV-1 from 293T cells” value is given as “quantitatively inhibit the release”.
Regarding `COc1ccc2nc([S+]([O-])Cc3c(C)c(OC)c(C)c[n+]3[O-])[nH]c2c1` (stereo not shown) [omeprazole-N-oxide], the “Anti-HSV-2 activity (release from Vero cells), in words” value (“Anti-HSV-2 activity” below) in the experiment on HSV-2 was “inactive”. Besides, the “Tm (melting temperature) shift of Tsg101-UEV” value in experiment [1] was “did not cause a detectable thermal shift”.
As to `COc1ccnc(C[S+]([O-])c2nc3ccc(OC(F)F)cc3[nH]2)c1OC` (stereo not shown) [pantoprazole], the “Anti-HSV-2 activity” value in the experiment with HSV-2 was “inactive”.
Consider `COCCCOc1ccnc(C[S+]([O-])c2nc3ccccc3[nH]2)c1C` (stereo not shown) [rabeprazole], for which, in the experiment with HSV-2, the “Anti-HSV-2 activity” value was “inactive”.
